Values joined by “and” are separate entries in the source; they are usually repeats but may differ in a detail not shown here. Equal values may be shown once.
What was measured:
[1] = Wetting front test (soil migration by capillary action in soil-filled tubes, wetting front measured by caliper); assay type: physicochemical; conditions: for Migration: single replicates
Description: • Polymer A: Polymer formed from glycerol and ethylene oxide and propylene oxide units; molecular weight about 3000 g/mol, hydroxyl number about 56 mg KOH/g, clear liquid, dynamic viscosity at 25° C. about 582 cP, density at 25° C. about 1.02 g/cm^3. • Polymer B: Liquid composition, 70 wt % Polymer A, 10 wt % nonionic surfactant (ethoxylated alcohol, HLB about 13, hydroxyl number about 125), 10 wt % anionic surfactant (dodecylbenzene calcium sulfonate), and 10 wt % 1,2-propylene glycol. • Surfactant A: liquid, nonionic ethoxylated tristyrylphenol, HLB 10-11. • Surfactant B: nonionic EO-PO-EO Triblockcopolymer, average molecular weight about 2500 Da, pour point −4° C., HLB 1-7, solubility in water at least 10 wt % at 25° C. • Surfactant C: Alkyl polyethylene glycol ether based on C10-Guerbet alcohol, HLB about 13, solubility in water at least 10 wt % at 23° C. • Surfactant D: Calcium dodecylbenzene sulfonate. • Silica Thickener: White powder, hydrophilic fumed silica, specific surface area (BET) about 200 m^2/g; average primary particle diameter 12 nm, tapped density about […]. Wetting Front Test Procedure
A fine nylon netting was adhered (Polyseamseal® Caulk, Henkel Corp) to one end each of 15 cm×1.5 cm plastic tubes. Tubes were filled with Greenville silt loam (sand:silt:clay, 22:58:20). As soil was added, tubes were tapped on the lab bench to loosely pack the soil (approximately 50 g soil per tube). Aqueous solutions of subject treatments were prepared. Solutions (4 ml) were added to glass beakers (50 ml capacity), and the soil-filled tubes were placed in the beakers. Each treatment was replicated 4 times. […] Means were separated at the […] via ANOVA followed by Tukey's HSD.

[2] = Wetting front test with segment analysis (soil segments extracted with acetonitrile, broflanilide quantified by HPLC-UV); assay type: physicochemical; conditions: Example 3; for Concentration of broflanilide in segment 0-2 cm (average of four replicates): soil segment 0-2 cm; for Concentration of broflanilide in segment 2-4 cm (average of four replicates): soil segment 2-4 cm; for Concentration of broflanilide in segment 4-6 cm (average of four replicates): soil segment 4-6 cm; for Concentration of broflanilide in segment 6-8 cm (average of four replicates): soil segment 6-8 cm; for Concentration of broflanilide in segment 8-10 cm (average of four replicates): soil segment 8-10 cm
Description: A fine nylon netting was adhered (Polyseamseal® Caulk, Henkel Corp) to one end each of 15 cm×1.5 cm plastic tubes. Tubes were filled with Greenville silt loam (sand:silt:clay, 22:58:20). As soil was added, tubes were tapped on the lab bench to loosely pack the soil (approximately 50 g soil per tube). Aqueous solutions of subject treatments were prepared. Solutions (4 ml) were added to glass beakers (50 ml capacity), and the soil-filled tubes were placed in the beakers. Each treatment was replicated 4 times. The solutions migrated upward into the soil via capillary action, and after 20 hours, the wetting front was measured in three locations using a digital caliper. Means were separated at the […] via ANOVA followed by Tukey's HSD. An aqueous solution comprising 600 ppm broflanilide was made from an aqueous suspension concentrate comprising 100 g/l broflanilide. Optionally 3000 ppm of Polymer B was added. The wetting front test was made as described above with another analytical method: The soil filled tubes (four replicates for both the sample with and without polymer) were separated in seven segments with each 2 cm long. The segment “0-2 cm” was the segment on the bottom which had direct contact to the aqueous solution of broflanilide. The segments (about 4.0 g each) were extracted twice with acetonitrile. The amount of broflanilide was quantified via HPLC with UV detection.

[3] = Example 1, 600 ppm chlorfenapyr + 1200 ppm Polymer B, Greenville silt loam, 20 hours
[4] = Example 1, 600 ppm chlorfenapyr + 3000 ppm Polymer B, Greenville silt loam, 20 hours
[5] = Example 5, 600 ppm fipronil + 1200 ppm Polymer B, after 2 h
[6] = Example 5, 600 ppm fipronil + 1200 ppm Polymer B, after 20 h
[7] = Example 5, 600 ppm fipronil + 3000 ppm Polymer B, after 2 h
[8] = Example 5, 600 ppm fipronil + 3000 ppm Polymer B, after 20 h
[9] = Example 5, 600 ppm fipronil, no polymer, after 20 h
[10] = 600 ppm broflanilide + 3000 ppm Polymer B
[11] = 600 ppm broflanilide, no polymer
[12] = Example 2, 600 ppm broflanilide + 1500 ppm Polymer A, Greenville silt loam, 20 hours
[13] = Example 2, 600 ppm broflanilide + 3000 ppm Polymer A, Greenville silt loam, 20 hours
[14] = Example 2, 600 ppm broflanilide + 4200 ppm Polymer A, Greenville silt loam, 20 hours
[15] = Example 4, 600 ppm broflanilide + 300 ppm Polymer A, Greenville silt loam, 20 hours
[16] = Example 4, 600 ppm broflanilide + 600 ppm Polymer A, Greenville silt loam, 20 hours
[17] = Example 4, 600 ppm broflanilide + 1500 ppm Polymer A, Greenville silt loam, 20 hours
[18] = Example 4, 600 ppm broflanilide, no polymer, Greenville silt loam, 20 hours

CCOCn1c(-c2ccc(Cl)cc2)c(C#N)c(Br)c1C(F)(F)F [Chlorfenapyr, chlorfenapyr]
Migration ([1]; Example 1, 600 ppm chlorfenapyr (Phantom SC), no polymer, Greenville silt loam, 20 hours): 7.7780 cm and 7.5100 cm and 7.6600 cm and 7.7640 cm | Average Migration [1, 3]: 8.39 cm | Migration [1, 3]: 8.3770 cm and 8.3350 cm and 8.4290 cm and 8.4350 cm | Average Migration [1, 4]: 8.81 cm | Migration [1, 4]: 8.7420 cm and 8.7610 cm and 8.8760 cm and 8.8460 cm | Average Migration ([1]; Example 1, 600 ppm chlorfenapyr, no polymer, Greenville silt loam, 20 hours): 7.68 cm

N#Cc1nn(-c2c(Cl)cc(C(F)(F)F)cc2Cl)c(N)c1[S+]([O-])C(F)(F)F (stereo not drawn) [Fipronil, fipronil]
Migration ([1]; Example 5, 600 ppm fipronil (Termidor SC), no polymer, after 2 h): 6.0 cm and 6.1 cm and 6.5 cm and 6.4 cm | Average Migration [1, 5]: 6.70 cm | Migration [1, 5]: 6.5 cm and 7.0 cm and 6.7 cm and 6.6 cm | Average Migration [1, 6]: 7.93 cm | Migration [1, 6]: 7.7 cm and 8.0 cm (3×) | Average Migration [1, 7]: 6.98 cm | Migration [1, 7]: 7.1 cm and 7.0 cm (2×) and 6.8 cm | Average Migration [1, 8]: 8.40 cm | Migration [1, 8]: 8.5 cm and 8.3 cm and 8.4 cm (2×) | Average Migration ([1]; Example 5, 600 ppm fipronil, no polymer, after 2 h): 6.25 cm | Average Migration [1, 9]: 7.38 cm | Migration [1, 9]: 7.0 cm and 7.4 cm (2×) and 7.7 cm

CN(C(=O)c1ccccc1)c1cccc(C(=O)Nc2c(Br)cc(C(F)(C(F)(F)F)C(F)(F)F)cc2C(F)(F)F)c1F [Broflanilide, broflanilide]
Concentration of broflanilide in segment 0-2 cm (average of four replicates) [2, 10]: 170 ppm | Concentration of broflanilide in segment 2-4 cm (average of four replicates) [2, 10]: 36 ppm | Concentration of broflanilide in segment 4-6 cm (average of four replicates) [2, 10]: 16 ppm | Concentration of broflanilide in segment 6-8 cm (average of four replicates) [2, 10]: 4 ppm | Concentration of broflanilide in segment 8-10 cm (average of four replicates) [2, 10]: 0 ppm | Concentration of broflanilide in segment 0-2 cm (average of four replicates) [2, 11]: 127 ppm | Concentration of broflanilide in segment 2-4 cm (average of four replicates) [2, 11]: 51 ppm | Concentration of broflanilide in segment 4-6 cm (average of four replicates) [2, 11]: 3 ppm | Concentration of broflanilide in segment 6-8 cm (average of four replicates) [2, 11]: 0 ppm | Concentration of broflanilide in segment 8-10 cm (average of four replicates) [2, 11]: 0 ppm | Average Migration [1, 12]: 9.29 cm | Migration [1, 12]: 8.89 cm and 9.34 cm (2×) and 9.6 cm | Average Migration [1, 13]: 8.74 cm | Migration [1, 13]: 8.53 cm and 8.62 cm and 8.60 cm and 9.19 cm | Average Migration [1, 14]: 8.79 cm | Migration [1, 14]: 8.37 cm and 9.22 cm and 8.74 cm and 8.82 cm | Average Migration [1, 15]: 7.78 cm | Migration [1, 15]: 7.90 cm and 7.72 cm and 7.71 cm and 7.80 cm | Average Migration [1, 16]: 7.98 cm | Migration [1, 16]: 7.98 cm and 7.77 cm and 8.04 cm and 8.02 cm | Average Migration [1, 17]: 7.72 cm | Migration [1, 17]: 7.73 cm and 7.69 cm and 7.82 cm and 7.64 cm | Average Migration [1, 18]: 6.89 cm | Migration [1, 18]: 7.32 cm and 6.75 cm and 6.61 cm and 6.88 cm

From patent US12279611B2, “Method for controlling insects where an alkoxylated glycerol is applied to soil” (priority 2016, dated 2025)
